Data published in publication PMC11109052, “Metabolism characterization and toxicity of N-hydap, a marine candidate drug for lung cancer therapy by LC–MS method” (Natural Products and Bioprospecting, 2024).

What was measured:
CYP3A4 = assay: DME activity ex vivo in MLMs and MKMs: CYP3A4 (6-OH-Tes from Tes); set-up: species or system mice; key to CYP3A4 Enzymatic activity: ↑: up-regulation; ↓: down-regulation; –: no change
Protocol: (§1) Mice were randomly divided into four groups, with eight animals in each group. The mice received oral pretreatment with N-hydap for 7 days at doses of 2, 5, and 10 mg/kg/day, which were considered as the low dose, medium dose, and high dose, respectively. Correspondingly, the control group received PBS. On the 8th day, the liver and kidneys were removed, and organs from eight mice per group were combined to prepare MLMs and MKMs using the detailed procedures above. Subsequently, we determined the activity of CYP and UGT enzymes by specific substrate metabolized with MLMs (0.5 mg/mL) and MKMs (0.2 mg/mL) in vitro. Specifically, the following selective substrates were used for the respective enzymes: PH (1 μM) for CYP1A2, DIC (1 μM) for CYP2C9, MP (90 μM) for CYP2C19, DM (1 μM) for CYP2D6, CZX (10 μM) for CYP2E1, Tes (1 μM) for CYP3A4, SN38 (1 μM) for UGT1A1, CACD (100 μM) for UGT1A3, Sero (20 μM) for UGT1A6, and Prop (1 μM) for UGT1A9. All substrates were dissolved in methanol or DMSO. The incubation procedure was carried out as mentioned above, and the reaction was terminated with VER (20 ng/mL) in ESI+ mode and CLP (200 ng/mL) in ESI− mode. In the ex vivo experiments, the activity of enzymes was measured by quantifying the production of various metabolites (nM/mg protein/min). The metabolites and their corresponding enzymes are as follows: APAP from PH, 4-OH-DIC from DIC, 4-OH-MP from MP, DXO from DM, 6-OH-CZX from CZX, 6-OH-Tes from Tes, SN38-G from SN38, CACD-G from CACD, Sero-G from Sero, Prop-G from Prop. The measurements were performed using multiple reaction monitoring (MRM) transitions, which are specific mass spectrometry transitions used for quantification. The optimized parameters for each metabolite, such as declustering potential and collision energy, were described in Supplementary Table 1. All experiments were conducted in triplicate, to ensure accuracy and reproducibility.

Ugt1a6a = assay: Real-time PCR mRNA level after 7 days gavage: Ugt1a6a (human homolog UGT1A6); assay type: in vivo, mice; set-up: key to UGT1A6 mNA expression: ↑: up-regulation; ↓: down-regulation; –: no change
Protocol: as §1, with “The optimized parameters for each metabolite, such as declustering potential and collision energy, were described in Supplementary Table 1. All experiments were conducted in triplicate, to ensure accuracy and reproducibility.” left out
Total RNA from liver and kidney samples taken after 7 days of N-hydap gavage was extracted using the Animal Total RNA Isolation Kit (Foregene, Chengdu, Sichuan, China) following the manufacturer’s instructions. The concentrations of total RNA were determined by a nucleic acid concentration tester at 260/280 nm. […]

[1] = Metabolic stability in HLMs, UGT reaction (glucuronidation); assay type: in vitro ADME, human; conditions: human, human liver microsomes (UGT reaction), pH 7.4, HLMs, UGT reaction
Protocol: (§2) Various microsomes including HLMs, HKMs, HIMs, RLMs, RKMs, MLMs and MKMs were involved in CYP and UGT reactions of N-hydap. A typical CYP incubation mixture included 0.5 mg/mL microsomes protein, 3.3 mM glucose-6-phosphate, 3.3 mM MgCl2, 0.4 U/mL glucose-6-phosphate dehydrogenase, and N-hydap (1, 2.5, or 10 μM) in the 50 mM potassium phosphate buffer (KPI, pH 7.4). The incubation mixture was preincubated at 37 °C for 5 min, and the reaction was started by adding NADP to form a NADPH-regenerating system. Simultaneously, the classic UGT reaction system consisted of 50 mM KPI, 5 mM MgCl2, 0.5 mg/mL microsomes, 0.125 mg/mL alamethicin, and 5.25 mg/mL saccharolactone. The reaction was initiated after supplying UDPGA. The CYP and UGT mixtures were incubated at 37 °C in a shaking water bath (80 rpm) for 1.5 h to enhance metabolite formation. To terminate the reaction, an ice-cold solution of Tes (50 ng/mL, dissolved in methanol and used as an internal standard) was added to half of the mixture volume. The mixture was vortexed for 30 s and then centrifuged at 13,000 rpm for 15 min to eliminate any precipitated protein. The resulting supernatant was transferred to autosampler vials, and 5 μL was injected into the LC–MS system. All reactions were conducted in triplicate.
(§3) The identical concentration of HLMs was utilized for both the CYP reaction and UGT reaction. At predetermined time intervals of 0, 15, 30, and 60 min, 100 µL samples were taken from the reaction volumes. To halt the reaction, 50 µL of 50 ng/mL Tes was added. Samples were analyzed using LC–MS to compare the remaining level of N-hydap between the CYP reaction and UGT reaction. T1/2 and CLint (in vivo) (mL/min/kg) were calculated as reported previously:
(§4) T1/2=0.693/k, where k represents the slope of the line derived from plotting the natural logarithm of the percentage (Ln %) of N-hydap remaining in the reaction mixture against the incubation time (minutes).
(§5) CLintinvivo=0.693/invitroT1/2×mLincubation/mgmicrosomes×45mgmicrosomes/gliver×20gliver/kgbodyweight.

HLMs (UGT reaction) = assay: as above; assay type: in vitro ADME, human; conditions: for percentage of N-hydap remaining: HLMs, glucuronidation reaction
Protocol: as §2, §3, §4, §5

[2] = Metabolic stability in HLMs, CYP reaction; assay type: in vitro ADME, human; conditions: human, human liver microsomes (CYP reaction), pH 7.4, HLMs, CYP reaction
Protocol: as §2, §3, §4, §5

HLMs (CYP reaction) = assay: Metabolic stability in HLMs, CYP reaction; assay type: in vitro ADME, human; conditions: for remaining percentage of N-hydap: HLMs, CYP reaction
Protocol: as §2, §3, §4, §5

[3] = extrapolated from in vitro T1/2, read-out: CLint (in vivo)

CC1CCC2C(C=CC(C)C2C(=O)c2c(O)c(C3(O)CCC(O)C4OC43)cn(O)c2=O)C1 (stereo not shown) [N-hydap, N-Hydroxyapiosporamide]
CYP3A4 Enzymatic activity (CYP3A4; Kidney): ↑ | CYP3A4 Enzymatic activity (CYP3A4; Liver): ↑ | elevation of formation rate of 6-OH-Tes (CYP3A4; MLMs and MKMs, range stated jointly for APAP, SN38-G, 6-OH-Tes and CDCA-G): 12%-331% | CYP3A4 inhibitor, experimental results (CYP3A4; Table 4 experimental column): No | UGT1A6 mNA expression (Ugt1a6a; Kidney): ↑ | UGT1A6 mNA expression (Ugt1a6a; Liver): ↑ | mRNA levels of Ugt1a6a (Ugt1a6a; mice, 2, 5, 10 mg/kg p.o. 7 days, liver and kidneys): modest increase | half-life [1]: 2.16 h | CLint scaled [1, 3]: 48.2 mL/min/kg | percentage of N-hydap remaining (HLMs (UGT reaction); 15 min): 47.84% | percentage of N-hydap remaining (HLMs (UGT reaction); 30 min): 40.44% | UGT catelyzed, experimental results (HLMs (UGT reaction); Table 4 experimental column): Yes | Phase II metabolism, experimental results (HLMs (UGT reaction); Table 4 experimental column, microsomes): Glucuronidation | eliminated by UGTs (HLMs (UGT reaction); various microsomes, after 1 h): ~70% | half-life [2]: 2.98 h | CLint scaled [2, 3]: 34.9 mL/min/kg | remaining percentage of N-hydap (HLMs (CYP reaction); 15 min): 64.43% | remaining percentage of N-hydap (HLMs (CYP reaction); 30 min): 58.02% | eliminated by CYPs (HLMs (CYP reaction); various microsomes, after 1 h): about 50%
